According to US20040063716A1, “Cholesterol biosynthesis inhibitors containing as the active ingredient tricyclic spiro compounds” (priority 2000, published 2004):

Tests used:
Format in all cases: biochemical
trypsin = target: T1, trypsin (Bos taurus, UniProt P00760); assay: Inhibitory activity for trypsin; conditions: FXa versus trypsin
T1 construct: gene PRSS1
T1 sequence (P00760 24-246): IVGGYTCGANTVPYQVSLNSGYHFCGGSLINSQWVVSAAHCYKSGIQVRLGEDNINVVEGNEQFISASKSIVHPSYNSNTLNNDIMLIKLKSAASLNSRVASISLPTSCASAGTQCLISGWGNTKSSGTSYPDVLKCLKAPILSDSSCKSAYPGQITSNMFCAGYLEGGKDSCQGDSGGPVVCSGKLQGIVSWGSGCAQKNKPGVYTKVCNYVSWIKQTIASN

human FXa = target: T2, human FXa (Homo sapiens, UniProt P00742); assay: Measurement of human FXa inhibitory action (chromogenic substrate S-2222); conditions: human FXa 0.019 U/ml, S-2222 0.4 mM, 37° C., pH 7.5
T2 construct: purchased Enzyme Research Laboratories, Inc
Method: In vitro FXa inhibitory activity is measured in accordance with the method of Kettner et al. (Journal of Biological Chemistry, vol. 265, pages 18289 to 18297, 1990). To be more specific, human FXa (product of Enzyme Research Laboratories, Inc., 0.019 U/ml) is mixed with a test compound diluted with dimethylsulfoxide (DMSO) at various concentrations and a synthetic substrate S-2222 (Chromogenix AB, 0.4 mM). The mixtures are incubated at 37° C. in Tris-hydrochloric acid buffer (pH 7.5) while the absorbance at 405 nm is measured continuously. To calculate the FXa inhibitory activity of the test compound, the initial reaction velocity is compared with the value for a control containing no test compound. It should be noted that the FXa inhibitory activity of the test compound is generally indicated as IC50.

human plasma = assay: Measurement of intrinsic coagulation time (APTT) in vitro
Method: Activated partial thromboplastin time (APTT) is measured in the presence of the test compounds diluted at various concentrations. A test compound diluted with DMSO at various concentrations is mixed with human plasma and APTT reagent. The mixture is incubated at 37° C. for 2 minutes; calcium chloride (25 mM) is added to the mixture; and the coagulation time is thereafter measured. It should be noted that the anticoagulant activity of the test compound is described in terms of the concentration required to double the coagulation time for the case where no test compound is added.

T2 sequence (P00742 235-488 limits assumed): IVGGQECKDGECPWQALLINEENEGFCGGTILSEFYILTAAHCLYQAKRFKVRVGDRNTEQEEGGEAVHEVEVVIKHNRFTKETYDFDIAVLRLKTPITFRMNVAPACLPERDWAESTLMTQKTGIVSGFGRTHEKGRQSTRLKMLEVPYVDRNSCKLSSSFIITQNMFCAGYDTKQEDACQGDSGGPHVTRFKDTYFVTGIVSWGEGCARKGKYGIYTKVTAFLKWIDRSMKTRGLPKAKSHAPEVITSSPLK
T2 sequence (P00742 41-179 partner limits assumed): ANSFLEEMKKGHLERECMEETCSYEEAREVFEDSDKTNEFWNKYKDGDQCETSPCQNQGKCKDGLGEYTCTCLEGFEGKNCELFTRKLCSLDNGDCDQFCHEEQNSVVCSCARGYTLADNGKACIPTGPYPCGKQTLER

Q: With COCC12CN(S(=O)(=O)c3ccc4cc(Cl)ccc4c3)CC(=O)N1CC1(CCN(c3ccncc3)CC1)O2 (single isomer, unassigned; (-)) [Compound A, (−)-1,4-diaza-4-(6-chloronaphthalen-2-ylsulfonyl)-6-(methoxymethyl)-7-oxa-1′-(4-pyridyl)spiro[bicyclo[4.3.0]nonane-8,4′-piperidin]-2-one] as the compound, how does the selectivity for trypsin (trypsin) read?
A: The selectivity for trypsin was “remarkably high selectivity”.

Q: Which IC50 (human FXa) does the source give for O=C(O)COCC12CN(S(=O)(=O)c3ccc4cc(Cl)ccc4c3)CC(=O)N1CC1(CCN(c3ccncc3)CC1)O2 (stereo not drawn) [Example 5, 1,4-Diaza-4-(6-chloronaphthalen-2-ylsulfonyl)-6-(carboxymethoxymethyl)-7-oxa-1′-(4-pyridyl)spiro[bicyclo[4.3.0]nonane-8,4′-piperidin]-2-one] here?
A: Its IC50 is 2.9 nM.

Q: And the “Concentration required to double coagulation time” value (human plasma)?
A: The value was 0.43 µM.

Q: Which IC50 (human FXa) does the source give for O=C1CN(S(=O)(=O)c2ccc3cc(Cl)ccc3c2)CC2NC3(CCN(c4ccncc4)CC3)CN12 (stereo not drawn) [Example 765, 1,4,7-Triaza-4-(6-chloronaphthalen-2-ylsulfonyl)-1′-(4-pyridyl)spiro[bicyclo[4.3.0]nonane-8,4′-piperidin]-2-one] here?
A: The IC50 was 5.7 nM.

Q: Which IC50 (human FXa) does the source give for COCC12CN(S(=O)(=O)c3ccc4cc(Cl)ccc4c3)CC(=O)N1CC1(CCN(c3ccncc3)CC1)O2 (stereo not drawn) [Example 1, 1,4-Diaza-4-(6-chloronaphthalen-2-ylsulfonyl)-6-(methoxymethyl)-7-oxa-1′-(4-pyridyl)spiro[bicyclo[4.3.0]nonane-8,4′-piperidin]-2-one] here?
A: Its IC50 is 3.2 nM.

Q: With O=C1CN(S(=O)(=O)c2cc3ccc(Cl)cc3s2)CC2OC3(CCN(c4ccncc4)CC3)CN12 (stereo not drawn) [Example 213, 1,4-Diaza-4-(6-chlorobenzo[b]thiophen-2-ylsulfunyl)-7-oxa-1′-(4-pridyl)spiro[bicyclo[4.3.0]nonane-8,4′-piperidin]-2-one] as the compound, how does the IC50 (human FXa) read?
A: The IC50 was 0.6 nM.
